According to patent US20210023065A1, “AMPHIPHILIC THIOL COMPOUNDS AND USES THEREOF” (THE REGENTS OF THE UNIVERSITY OF CALIFORNIA, priority 2018, published 2021):

What was measured:
Type in all cases: cell-based
endogenous HRas = target: T1, endogenous HRas (Homo sapiens, UniProt P01112); assay: Acyl resin-assisted capture detection of HRas palmitoylation in HeLa cells; details: HeLa cells
T1 construct: endogenous in cells; host or cells: HeLa
Protocol: HeLa cells were grown to confluency in 10 cm plates. Stock solutions of compounds were prepared in DMSO as before and diluted to the final indicated concentration in 5.5 mL of OptiMEM media before adding to cells. Cells were incubated at 37° C. for 20 min and then media removed and 3 mL of HBSS added to each plate. Cells were detached using a cell scraper, pelleted by centrifugation at 1,000 rcf for 5 min and the pellet processed using a CAPTUREome S-Palmitoylated Protein Kit (Badrilla, UK) according to the manufacturer's protocol. Samples were resolved by electrophoresis using 4-20% SDS-polyacrylamide gels (Bio-Rad) under denaturing and reducing conditions. Proteins were then electrotransferred to a PVDF membrane (Bio-Rad). The membrane was blocked with 3% BSA and then subjected to immunoblot analysis using Anti-GTPase HRAS antibody (ab97488) (Abcam), Calnexin Antibody (2433S) (Cell Signaling Technology), Gα(i) Antibody (5290S) (Cell Signaling Technology), SNAP25 Antibody (5308S) (Cell Signaling Technology), Flotillin-2 Antibody (3436S) (Cell Signaling Technology), CD44 Antibody (3570S) (Cell Signaling Technology), Lyric/Metadherin Antibody (14065S) (Cell Signaling Technology), Flotillin-1 Antibody (3253S) (Cell Signaling Technology) and secondary goat anti-rabbit IgG-HRP (sc-2030) (Santa Cruz Biotechnology) or goat anti-mouse IgG HRP (ThermoFisher). Chemiluminescent detection was performed by using SuperSignal West Pico PLUS chemiluminescent substrate (ThermoFisher) according to the manufacturer's instructions.
(§1) Assays were performed in 3 biological replicates. Each replicate involved the analysis of 4 to 5 conditions side-by-side. Western blots were analyzed using ImageJ^1. The intensity of the protein band in each cleaved bound fraction (palmitoylated protein fraction) was normalized to the intensity of the corresponding input fraction (total protein fraction). The values within individual S 4 replicates were normalized to the control or vehicle condition and reported as means±SD. An unpaired t test was performed to determine the significance between means.

Gα(i) = assay: Acyl resin-assisted capture detection of Gα(i) palmitoylation in HeLa cells; details: 1.25 μmol/10^7 cells, relative to vehicle
Protocol: (§2) HeLa cells were grown to confluency in 10 cm plates. Stock solutions of compounds were prepared in DMSO as before and diluted to the final indicated concentration in 5.5 mL of OptiMEM media before adding to cells. Cells were incubated at 37° C. for 20 min and then media removed and 3 mL of HBSS added to each plate. Cells were detached using a cell scraper, pelleted by centrifugation at 1,000 rcf for 5 min and the pellet processed using a CAPTUREome S-Palmitoylated Protein Kit (Badrilla, UK) according to the manufacturer's protocol. Samples were resolved by electrophoresis using 4-20% SDS-polyacrylamide gels (Bio-Rad) under denaturing and reducing conditions. Proteins were then electrotransferred to a PVDF membrane (Bio-Rad). […]
(§3) Assays were performed in 3 biological replicates. […] Western blots were analyzed using ImageJ^1. […]

lyric/metadherin = target: T2, lyric/metadherin (Homo sapiens, UniProt Q86UE4); assay: Acyl resin-assisted capture detection of lyric/metadherin palmitoylation in HeLa cells; details: 1.25 μmol/10^7 cells, relative to vehicle
T2 construct: we detected the palmitoylation levels of eight known palmitoylated proteins after treatment with 1; endogenous in cells; host or cells: HeLa
T2 sequence (Q86UE4 1-582): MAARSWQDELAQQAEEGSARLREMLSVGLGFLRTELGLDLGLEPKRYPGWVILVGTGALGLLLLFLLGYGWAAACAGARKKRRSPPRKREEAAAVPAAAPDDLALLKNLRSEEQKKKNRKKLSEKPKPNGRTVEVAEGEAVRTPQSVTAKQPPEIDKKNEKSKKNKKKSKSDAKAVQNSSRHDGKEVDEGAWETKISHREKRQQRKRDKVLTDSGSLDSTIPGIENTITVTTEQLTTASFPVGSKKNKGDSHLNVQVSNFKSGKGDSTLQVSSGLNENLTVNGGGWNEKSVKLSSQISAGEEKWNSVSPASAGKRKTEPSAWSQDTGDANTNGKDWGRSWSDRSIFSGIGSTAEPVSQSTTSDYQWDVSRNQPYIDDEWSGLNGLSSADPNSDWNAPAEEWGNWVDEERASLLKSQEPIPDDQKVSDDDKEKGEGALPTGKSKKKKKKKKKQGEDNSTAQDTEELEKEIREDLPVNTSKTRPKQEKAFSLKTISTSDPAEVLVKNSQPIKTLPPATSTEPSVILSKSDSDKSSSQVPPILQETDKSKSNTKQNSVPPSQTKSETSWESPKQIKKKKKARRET
Protocol: as §2, §3

CD44 = target: T3, CD44 (Homo sapiens, UniProt P16070); assay: Acyl resin-assisted capture detection of CD44 palmitoylation in HeLa cells; details: 1.25 μmol/10^7 cells, relative to vehicle
T3 construct: we detected the palmitoylation levels of eight known palmitoylated proteins after treatment with 1; endogenous in cells; host or cells: HeLa
Protocol: as §2, §3

flotillin-2 = target: T4, flotillin-2 (Homo sapiens, UniProt Q14254); assay: Acyl resin-assisted capture detection of flotillin-2 palmitoylation in HeLa cells; details: 1.25 μmol/10^7 cells, relative to vehicle
T4 construct: we detected the palmitoylation levels of eight known palmitoylated proteins after treatment with 1; endogenous in cells; host or cells: HeLa
T4 sequence (Q14254 1-428): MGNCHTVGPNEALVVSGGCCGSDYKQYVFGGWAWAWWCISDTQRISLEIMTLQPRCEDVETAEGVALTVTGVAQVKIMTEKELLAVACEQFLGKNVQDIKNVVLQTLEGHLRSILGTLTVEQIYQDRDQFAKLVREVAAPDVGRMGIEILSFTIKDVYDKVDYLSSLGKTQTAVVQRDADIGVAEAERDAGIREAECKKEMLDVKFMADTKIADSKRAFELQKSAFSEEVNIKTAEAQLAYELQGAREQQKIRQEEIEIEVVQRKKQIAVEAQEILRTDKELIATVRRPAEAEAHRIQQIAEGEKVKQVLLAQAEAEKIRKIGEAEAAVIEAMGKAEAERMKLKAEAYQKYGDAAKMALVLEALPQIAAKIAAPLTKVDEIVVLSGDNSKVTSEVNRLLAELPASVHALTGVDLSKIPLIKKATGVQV
Protocol: as §2, §3

GAP43 = target: T5, GAP43 (Homo sapiens, UniProt P17677); assay: Acyl resin-assisted capture detection of GAP43 palmitoylation in INCL lymphoblasts; details: 0.05 μmol/10^7 cells, 24 h
T5 construct: Western blot detection of endogenous GAP43 in acyl resin-assisted capture fractions; host or cells: INCL human lymphoblasts
T5 sequence (P17677 1-238): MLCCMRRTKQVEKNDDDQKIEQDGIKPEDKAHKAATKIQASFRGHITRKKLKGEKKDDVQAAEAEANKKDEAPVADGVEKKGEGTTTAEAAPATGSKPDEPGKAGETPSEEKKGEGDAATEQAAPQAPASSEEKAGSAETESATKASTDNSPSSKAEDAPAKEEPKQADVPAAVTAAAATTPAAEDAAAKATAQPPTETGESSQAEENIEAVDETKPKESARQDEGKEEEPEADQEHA
Protocol: INCL Lymphoblasts were adjusted to 1,000,000 cells/mL in 20 mL of OptiMem Media. Stock solutions of compounds were prepared in DMSO as before and diluted to the indicated final concentration in the cell suspension. […] Cells were pelleted by centrifugation at 1,000 rcf for 5 min and the pellet processed using a CAPTUREome S-Palmitoylated Protein Kit (Badrilla, UK) according to the manufacturer's protocol. Samples were resolved by electrophoresis using 4-20% SDS-polyacrylamide gels (Bio-Rad) under denaturing and reducing conditions. Proteins were then electrotransferred to a PVDF membrane (Bio-Rad). The membrane was blocked with 3% BSA and then subjected to immunoblot analysis using GAP-43 (B-5) Antibody (sc-17790) (Santa Cruz Biotechnology) and secondary antibody goat anti-mouse IgG HRP (ThermoFisher). Chemiluminescent detection was performed by using SuperSignal West Pico PLUS chemiluminescent substrate (ThermoFisher) according to the manufacturer's instructions.
as §1

T1 sequence (P01112 whole entry): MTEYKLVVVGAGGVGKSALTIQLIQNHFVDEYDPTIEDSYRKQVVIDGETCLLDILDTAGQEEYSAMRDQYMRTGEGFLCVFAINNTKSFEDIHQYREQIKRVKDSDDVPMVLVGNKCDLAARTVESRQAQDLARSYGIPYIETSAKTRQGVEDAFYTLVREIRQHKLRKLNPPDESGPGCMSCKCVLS
T3 sequence (P16070 21-742): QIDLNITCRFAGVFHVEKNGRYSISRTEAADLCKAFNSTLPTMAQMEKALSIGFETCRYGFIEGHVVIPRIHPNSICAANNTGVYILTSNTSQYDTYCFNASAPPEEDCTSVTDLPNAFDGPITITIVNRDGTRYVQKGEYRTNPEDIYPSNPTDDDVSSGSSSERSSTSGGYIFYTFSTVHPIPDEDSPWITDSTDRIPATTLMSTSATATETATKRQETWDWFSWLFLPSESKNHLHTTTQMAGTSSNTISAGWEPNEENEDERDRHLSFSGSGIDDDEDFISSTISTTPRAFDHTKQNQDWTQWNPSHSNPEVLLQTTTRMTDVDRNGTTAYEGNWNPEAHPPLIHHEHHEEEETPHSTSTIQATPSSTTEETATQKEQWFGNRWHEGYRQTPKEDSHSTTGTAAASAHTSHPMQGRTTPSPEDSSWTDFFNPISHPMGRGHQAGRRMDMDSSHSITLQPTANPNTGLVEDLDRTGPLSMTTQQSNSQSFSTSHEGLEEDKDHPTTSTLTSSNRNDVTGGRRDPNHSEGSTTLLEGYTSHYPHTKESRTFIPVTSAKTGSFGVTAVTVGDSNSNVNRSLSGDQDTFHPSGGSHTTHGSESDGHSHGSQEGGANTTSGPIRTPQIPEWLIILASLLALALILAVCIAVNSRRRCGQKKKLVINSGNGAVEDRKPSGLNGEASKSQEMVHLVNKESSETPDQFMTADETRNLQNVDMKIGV

## CCCCCCCCNC(=O)[C@@H](N)CS [compound 1, H2N-L-Cys-Oct]
Endogenous HRas; 1.25 μmol/10^7 cells, relative to vehicle
  reduction of palmitoylation level of HRas: > 80%
Endogenous HRas; 1.25 μmol/10^7 cells, with APT-1/2 inhibitor PB
  depalmitoylation of HRas in the presence of palmostatin B (PB): efficiently depalmitoylated HRas
Endogenous HRas; 0.31-1.25 μmol/10^7 cells, 20 min
  HRas palmitoylation over a range of concentrations: decreased in a dose-dependent manner
Endogenous HRas; 20 min, 1 at 1.25 μmol/10^7 cells, same experiments with TCEP alone or compound 2
  depalmitoylation of HRas: near complete depalmitoylation
Gα(i)
  reduction of palmitoylation level of Gα(i): > 80%
lyric/metadherin
  reduction of palmitoylation level of lyric/metadherin: > 80%
CD44
  reduction of palmitoylation level of CD44: > 80%
flotillin-2
  reduction of palmitoylation level of flotillin-2: 19-40%
GAP43
  level of GAP43 palmitoylation: significantly reduced
